In patent US20220000817A1, “PROGNOSIS AND TREATMENT OF METASTATIC CANCER” (Academia Sinica, priority 2018, published 2022):

How the values were obtained:
H1299 cells [1] = assay: Wound-healing migration and transwell invasion after EFHD2 knockdown; type: cell-based, human; conditions: EFHD2 knockdown in H1299 cells
Procedure: FIG. 1. EFHD2 increases the metastatic abilities of lung adenocarcinoma cells. The effects of EFHD2 overexpression in A549 cells and EFHD2-knockdown in H1299 cells on metastatic abilities were determined. (A) Migration ability was analyzed by wound-healing assay. (B) Invasive ability was analyzed by transwell invasion assay. (C) Invadopodia were visualized by colocalized of cortactin (green) and F-actin (red). (D) Quantification of cancer cells with invadopodia. N=100 cells/sample. **, P<0.01.
Wound healing assay. The in vitro migration assay was performed using a Culture-Insert well (ibidi GmbH, German/v). Cancer cells (4.5×10^4 cells) were cultured in suitable media in the device for 24 hr. After removal of the Culture-Insert, cancer cells were cultured for an additional 8 hr. The migration distance of cancer cells was recorded, and the migration area was measured using ImageJ software.
Matrigel invasion assay. For in vitro invasion assay, cancer cells (1.5×10^5 cells in 200 μL) were suspended in the upper half of a PET membrane transwell insert chamber (BD Biosciences), which was coated with Matrigel (1 mg/mL; BD Biosciences), on a 24-well plate. […]

H1299 cells [2] = assay: MTT cell growth after EFHD2 knockdown; type: cell-based, human; conditions: EFHD2 knockdown in H1299 cells
Procedure: MTT assay. […] The absorbance of the solution at 570 nm was measured by spectrophotometer.
To determine whether EFHD2 contributes to the metastatic abilities of lung adenocarcinoma cells, the pcDNA vector was used to overexpress EFHD2 in A549 cells and shRNA (i.e., shEFHD2) to knockdown EFHD2 in H1299 cells.

shEFHD2: short hairpin RNA directing cleavage of EFHD2 gene RNA; SEQ ID NO: 4, encoded by SEQ ID NO: 1 (GGCCCUCUUCUACAAGUUCGUCAUAGAGCUCUAUGACGAACUUGUAGAAGAGAAAAAAC; expressed or natural sequence)
invasiveness (H1299 cells [1]; transwell invasion assay): opposite effects | migration (H1299 cells [1]; wound-healing assay): opposite effects | cell growth (H1299 cells [2]): did not obviously affect cell growth
